Assay [1] has as its system 81 cancer cell lines representing 17 tumor tissue types. Briefly: Single agent activity, panel of 81 cancer cell lines plus PBMC. The format is cell-based. Conditions: for GI50: PBMC.
Assay [2] has as its system resting, non-proliferating PBMC. The description is as above. The format is cell-based.
The test system of a further assay is DLD1. The assay is described as follows: cells. Conditions: Homo sapiens, DLD-1, read-out: GI50 of etoposide (±Compound 1).
For another assay, the system named is A375. The assay is described as follows: SRB growth inhibition, 93 cell lines panel. The format is cell-based. Conditions: Homo sapiens, A-375; A375, skin; read-out: GI50 of etoposide (±Compound 1). As for the experimental part:
(§1) 90 μl of cells, after a 48-hour pre-growth period, were treated by mixing with 10 μl of the compound-containing media (resulting in a final DMSO concentration of 0.1%).
(§2) This is the drug concentration causing a 50% reduction compared to the net protein increase in control cells during the drug incubation period. In other words, G150 is IC50 corrected for time zero. […] TGI was calculated from Ti=Tz. […] It was calculated as 100×[(Ti−Tz)/Tz]=−50.

The test system of a further assay is SU-DHL-6. The assay is described as follows: SRB growth inhibition, 93 cell lines panel. The format is cell-based. Conditions: Homo sapiens; SU-DHL-6, hematological; read-out: GI50 of etoposide (±Compound 1). As for the experimental part:
as §1, §2

A further assay concerns JIMT1. The assay is described as follows: SRB growth inhibition, 93 cell lines panel. The format is cell-based. Conditions: Homo sapiens, JIMT-1; JIMT1, breast; read-out: GI50 of etoposide (±Compound 1). As for the experimental part: as §1, §2
The test system of the next assay is SW620. The assay is described as follows: SRB growth inhibition, 93 cell lines panel. The format is cell-based. Conditions: Homo sapiens, SW-620; SW620, colon; read-out: GI50 of etoposide (±Compound 1). As for the experimental part:
as §1, §2

The next assay relates to CALU6. The assay is described as follows: SRB growth inhibition, 93 cell lines panel. Conditions: Homo sapiens, Calu-6; CALU6, lung; read-out: GI50 of etoposide (±Compound 1). The format is cell-based. Here is the method: as §1, §2
The next assay concerns HT1080. Briefly: SRB growth inhibition, 93 cell lines panel. Conditions: Homo sapiens, HT-1080; HT1080, connective tissue; read-out: GI50 of etoposide (±Compound 1). The format is cell-based. As for the experimental part:
as §1, §2

For a further assay, the system named is LOVO. The assay is described as follows: SRB growth inhibition, 93 cell lines panel. The format is cell-based. Conditions: Homo sapiens, colon, read-out: GI50 of etoposide (±Compound 1). Here is the method:
as §1, §2

The test system of a further assay is A2780. Briefly: SRB growth inhibition, 93 cell lines panel. The format is cell-based. Conditions: Homo sapiens; A2780, ovary; read-out: GI50 of etoposide (±Compound 1). As for the experimental part: as §1, §2
Another assay deals with COLO205. Briefly: SRB growth inhibition, 93 cell lines panel. The format is cell-based. Conditions: Homo sapiens, COLO 205; COLO205, colon; read-out: GI50 of etoposide (±Compound 1). Here is the method: as §1, §2
In the next assay the test system is COLO678. The assay is described as follows: SRB growth inhibition, 93 cell lines panel. The format is cell-based. Conditions: Homo sapiens, COLO-678; COLO678, colon; read-out: GI50 of etoposide (±Compound 1). Here is the method: as §1, §2
A further assay concerns BXPC3. Briefly: SRB growth inhibition, 93 cell lines panel. The format is cell-based. Conditions: Homo sapiens, BXPC-3; BXPC3, pancreas; read-out: GI50 of etoposide (±Compound 1). As for the experimental part:
as §1, §2

In a further assay the test system is EJ28. Briefly: SRB growth inhibition, 93 cell lines panel. The format is cell-based. Conditions: Homo sapiens, EJ-28; EJ28, bladder; read-out: GI50 of etoposide (±Compound 1). Here is the method:
as §1, §2

The next assay relates to MDAMB436. The assay is described as follows: SRB growth inhibition, 93 cell lines panel. The format is cell-based. Conditions: Homo sapiens, MDA-MB-436; MDAMB436, breast; read-out: GI50 of etoposide (±Compound 1). Here is the method:
as §1, §2

The next assay deals with RAMOS. Briefly: SRB growth inhibition, 93 cell lines panel. The format is cell-based. Conditions: Homo sapiens, hematological, read-out: GI50 of etoposide (±Compound 1). As for the experimental part: as §1, §2
Another assay concerns OVCAR4. Briefly: SRB growth inhibition, 93 cell lines panel. The format is cell-based. Conditions: Homo sapiens, OVCAR-4; OVCAR4, ovary; read-out: GI50 of etoposide (±Compound 1). Here is the method:
as §1, §2

A further assay relates to SKLMS1. Briefly: SRB growth inhibition, 93 cell lines panel. Conditions: Homo sapiens, SK-LMS-1; SKLMS1, uterus; read-out: GI50 of etoposide (±Compound 1). The format is cell-based. As for the experimental part: as §1, §2
The subject of a further assay is RDES. Briefly: SRB growth inhibition, 93 cell lines panel. The format is cell-based. Conditions: RD-ES, bone, read-out: GI50 of etoposide (±Compound 1). As for the experimental part:
as §1, §2

Another assay deals with RD. The assay is described as follows: SRB growth inhibition, 93 cell lines panel. The format is cell-based. Conditions: Homo sapiens, muscle, read-out: GI50 of etoposide (±Compound 1). As for the experimental part:
as §1, §2

A further assay has as its system ACHN. The assay is described as follows: SRB growth inhibition, 93 cell lines panel. The format is cell-based. Conditions: Homo sapiens, kidney, read-out: GI50 of etoposide (±Compound 1). Here is the method: as §1, §2
The test system of the next assay is HCT116. The assay is described as follows: SRB growth inhibition, 93 cell lines panel. The format is cell-based. Conditions: Homo sapiens, HCT-116; HCT116, colon; read-out: GI50 of etoposide (±Compound 1). As for the experimental part:
as §1, §2

In the next assay the test system is IMR90. The assay is described as follows: SRB growth inhibition, 93 cell lines panel. The format is cell-based. Conditions: Homo sapiens, IMR-90; IMR90, lung; read-out: GI50 of etoposide (±Compound 1). Here is the method: as §1, §2
For the next assay, the system named is HEK293. The assay is described as follows: SRB growth inhibition, 93 cell lines panel. The format is cell-based. Conditions: Homo sapiens; HEK293, kidney; read-out: GI50 of etoposide (±Compound 1). Here is the method: as §1, §2
For another assay, the system named is MHHES1. Briefly: SRB growth inhibition, 93 cell lines panel. The format is cell-based. Conditions: Homo sapiens, MHH-ES-1; MHHES1, bone; read-out: GI50 of etoposide (±Compound 1). As for the experimental part:
as §1, §2

For a further assay, the system named is TE671. The assay is described as follows: SRB growth inhibition, 93 cell lines panel. The format is cell-based. Conditions: Homo sapiens, TE-671; TE671, muscle; read-out: GI50 of etoposide (±Compound 1). As for the experimental part: as §1, §2
The next assay has as its system MIAPACA2. Briefly: SRB growth inhibition, 93 cell lines panel. The format is cell-based. Conditions: Homo sapiens, MIA PaCa-2; MIAPACA2, pancreas; read-out: GI50 of etoposide (±Compound 1). As for the experimental part: as §1, §2
Another assay concerns MDAMB468. Briefly: SRB growth inhibition, 93 cell lines panel. Conditions: Homo sapiens, MDA-MB-468; MDAMB468, breast; read-out: GI50 of etoposide (±Compound 1). The format is cell-based. As for the experimental part: as §1, §2
Another assay has as its system MCF7. The assay is described as follows: SRB growth inhibition, 93 cell lines panel. Conditions: Homo sapiens; MCF7, breast; read-out: GI50 of etoposide (±Compound 1). The format is cell-based. As for the experimental part:
as §1, §2

A further assay deals with WS15-NHL. Briefly: SRB growth inhibition, 93 cell lines panel. The format is cell-based. Conditions: hematological, read-out: GI50 of etoposide (±Compound 1). Here is the method:
as §1, §2

Structures are written as SMILES. Read-outs that look alike come from different tables or passages of the source.

This is an account of results in patent publication US11246929B2, “Combination of a protein kinase inhibitor and an additional chemotherapeutic agent” (Merck Patent GmbH, priority 2016, dated 2022).

Protocol for DLD1: Cell growth and treatment were performed in 96-well microtitre plates CELLSTAR® (Greiner Bio-One, Germany). Cells harvested from exponential phase cultures by trypsinization or by splitting (in the case of cells growing in suspension) were plated in 90 μl of media at optimal seeding densities. The optimal seeding density for each cell line was determined to ensure exponential growth for the duration of the experiment. All cells growing without anticancer agents were sub-confluent by the end of the treatment, as determined by visual inspection.
90 μl of cells, after a 48-hour pre-growth period, were treated by mixing with 10 μl of the compound-containing media (resulting in a final DMSO concentration of 0.1%). The cells were allowed to grow at 37° C. for 72 (or 120) hours.
Cells were fixed to the surface by addition of 10% TCA (for adherent growing cells) or 50% TCA (for semi-adherent growing cell or cells growing in suspension). After an hour of incubation at 4° C. plates were washed twice with 200 μl of deionized water and dried. Cells were then stained with 100 μl of 0.04% w/v SRB. […]
Using these measurements, cellular responses can be calculated for incomplete inhibition of cell growth (GI), complete inhibition of cell growth (TGI) and net loss of cells (LC) due to compound activity. […] TGI was calculated from Ti=Tz. […] It was calculated as 100×[(Ti−Tz)/Tz]=−50.

Take `COc1cc([C@@H]2c3cc4c(cc3[C@@H](O[C@@H]3O[C@@H]5CO[C@@H](C)O[C@H]5[C@H](O)[C@H]3O)[C@H]3COC(=O)[C@H]23)OCO4)cc(OC)c1O` [Etoposide]: in assay [1], the activity range entry was “more than 1000 fold”. In assay [2], the “activity in resting PBMC” value is “no activity”. Besides, the GI50 with DLD1 worked out at 1350 nM; in the assay on A375 it was 378 nM; in the assay with SU-DHL-6, 665 nM; with JIMT1 it was 17700 nM; in the assay with SW620, 302 nM; in the assay with CALU6, 3650 nM. The GI50 in the assay with HT1080 turned out to be 96 nM; in the assay on LOVO, 606 nM; with A2780 it was 62 nM; in the assay on COLO205, 1050 nM; with COLO678, 10800 nM; in the assay on BXPC3 it was 7140 nM. Moreover, the concentration for 50% growth inhibition (GI50) is 440 nM in the assay on EJ28; 378 nM in the assay on MDAMB436; 204 nM with RAMOS; more than 10000 nM in the assay with OVCAR4; 1640 nM with SKLMS1; 412 nM in the assay on RDES. Also, the GI50 with RD was more than 10000 nM; in the assay on ACHN it was 714 nM; with HCT116, 770 nM; in the assay with IMR90, 704 nM; with HEK293 it was 190 nM; with MHHES1, 227 nM. For the same molecule, the GI50 with TE671 was found to be 1150 nM; in the assay on MIAPACA2, 689 nM; with MDAMB468, 1170 nM; with MCF7 it was 1290 nM; in the assay on WS15-NHL, 149 nM.

Turning to `COc1ccc([C@@H](O)c2cc(-c3ncnc4cc(N5CCOCC5)ccc34)c(F)cc2Cl)nn1` [Compound 1, (S)-[2-chloro-4-fluoro-5-(7-morpholin-4-yl-quinazolin-4-yl)-phenyl]-(6-methoxy-pyridazin-3-yl)-methanol], in [1], the activity range entry is given as “more than 20 fold”. Moreover, the concentration for 50% growth inhibition (GI50) in [1] (in a set of cell lines, read-out: activity (GI50), lower end of range) is 500 nM; in assay [1] (read-out: activity (GI50), upper end of range), more than 10000 nM. Further, in [2], the “activity in resting PBMC” value was “No activity”.
